Experimental data published in patent US8673949B2 (Bristol-Myers Squibb Company, priority 2008, dated 2014).
Values joined by “and” are separate entries in the source; they are usually repeats but may differ in a detail not shown here. Equal values may be shown once. Read-outs that look alike come from different tables or passages of the source.

Legend:
Tg4510 mice [1] = assay: Neuronal counts in CA1 and CA3 regions of hippocampus (stereology) in Tg4510 mice; assay type: in vivo, mouse; details: Tg4510 mice at 5.5 months
Description: (§1) Mice were euthanized by cervical dislocation at 5. 5 months followed by decapitation. Brains were immediately removed and divided down the midline into two hemispheres. The right hemisphere was placed into 20 mL of 4% paraformaldehyde (prepared fresh on the day of sacrifice) and stored overnight at 4° C. The following day, the brains were transferred to a tube containing 20 mL TBS (pH 7.4, 20 mM TRIS, 100 mM NaCl) and then stored at 4° C. until processing. Right hemispheres were embedded in paraffin, sectioned at 5 microns, and mounted on positively charged glass slides. The slides were dried overnight in a 60° C. oven and stored at room temperature until stained. The left hemispheres were frozen (within 2 minutes) on dry ice.
Nissl stained slides were scanned and digitized using the Aperio ScanScope (Aperio Technologies, Inc., Vista, Calif.). Images of the entire brain section were captured at high resolution and stored as files within Spectrum (Aperio software). To process images, a region of 4,000×4,000 pixels including the entire hippocampus was captured using the extract tool and saved as a JPEG file for importing into Metamorph (Molecular Devices, Sunnyvale, Calif.) for quantification of cell loss within the CA1 and CA3 regions of the hippocampus. A modified version of the single section dissector method (Moller et al. 1990) was utilized to quantify cell loss because of its suitability for thin, paraffin-embedded tissue sections. To obtain relative numbers of cells, every fifth section was collected as the paraffin-embedded brains were cut sagitally between the Bregma and approximately 0.75 mm laterally. Three regions were drawn and counted per section using Metamorph software. The same regions were used for every image and 5 sections were counted per animal, 5 slides apart. Statistics were performed using ANOVA followed by Dunnett's post-hoc test.
Previous studies had shown that Tg4510 mice lost about 60% of their neurons in the CA1 region of the hippocampus at 5.5 months (Santacruz et al. 2005). […]

neurofibrillary tangles = assay: Gallyas silver staining for neurofibrillary tangles in Tg4510 mice; assay type: in vivo, mouse; details: cortex and hippocampus, vs vehicle
Description: as §1
The Gallyas staining method was used to detect silver-positive neurofibrillary tangles and dystrophic neurites. Paraffin-embedded thin sections (5 microns) mounted on glass slides were deparaffinized and rehydrated via serial incubation in xylene (two times for 10 minutes each), 100% ethanol (two times for 10 minutes each), 95% MeOH/5% H2O2 (30 minutes), 95% ethanol (two times for 5 minutes each), 80% ethanol (two times for 5 minutes each), 50% ethanol (two times for 5 minutes each), and water (two times for 5 minutes each). […]

[2] = Plasma, brain and liver levels of epothilone D after bolus IV in triple transgenic mice; assay type: in vivo, mouse; details: bolus IV 5 mpk; for concentration at […]: .33 hr
Description: (§2) To calculate an accurate brain half-life for a long half-life compound, measurements need to be taken for several half lives after a single dose.

[3] = Plasma, brain and liver levels after oral gavage in C57BL/6 mice; assay type: in vivo, mouse
Description: Below, we first report the experimental detail for preparation and isolation of Compound III, and then the biological, in vivo data is described.

[4] = Brain half-life of epothilone D in mice; assay type: in vivo, mouse; details: for half-life: mouse, brain
Description: as §2

Tg4510 mice [5] = assay: Morris water maze (MWM) in Tg4510 mice; details: vs vehicle; for MWM acquisition: locating the hidden platform: tested at 4.5 months; for MWM probe trial % pathlength in target quadrant / MWM probe trial number of platform crossings: probe 18 h after 5 days of training
Description: A 10× stock solution was made in 100% ethanol, and diluted just before dosing. Mice were dosed in 3 cohorts and data were combined to give a final N of 12, 9, and 15 for the vehicle, 1 mpk, and 10 mpk groups, respectively. Mice were dosed in a chemical fume hood.
Tg4510 mice were used in this study. […] At 9 weeks (+/−15 days) of age, mice were acclimated to handling with a single mock injection of phosphate buffered saline, performed within a chemical fume hood. The mice were then housed in cages kept within the chemical fume hood for 48 hours. Following the 48-hour period, the mice were transferred to clean cages and brought to a behavioral suite for testing.
Mice were again tested in the MWM after the eighth dose (19 weeks of age+/−15 days) for six days. After behavioral testing, dosing resumed until the animals were 5.5 months of age at the time of harvest.
Mice were tested in Morris water maze (MWM) on two occasions, once prior to dosing, and once two months after dosing began. The second round of water maze testing was performed in another testing room. Mice were acclimated to the experimental room for 2-3 days prior to testing. The mice were placed in a water maze of 1.5 m diameter, with a 16 cm diameter platform placed 0.5-1.0 cm under the surface of the water. The water was made opaque with non-toxic white paint and the water temperature was regulated between 22-25° C.
The mice were given 4 trials per day of up to 90 seconds each with a 10 second rest period on the platform after each trial. […] The testing room rooms each had large external cues to allow the mice to orient as they learned the location of the platform. Mice were placed under a heat lamp to prevent hypothermia after each trial. The interval between trials ranged from 25 to 45 minutes. The mice were tracked using HVS Image Advanced Tracker VP200 software (Buckingham, UK) and the total distance traveled until reaching of the platform was determined.
Statistical analysis for acquisition path length from the five trials involved a repeated measures analysis of variance. […] If the analysis indicated a significant effect of treatment, or a treatment-by-trial interaction, differences between the 1 mpk and 10 mpk groups were compared to the vehicle group using Dunnett's test. The probe pathlengths in each quadrant, and number of platform crossings in each quadrant, were analyzed using Dunnett's test. In all cases, 1 mpk and 10 mpk groups were compared to the vehicle group. All calculations were done in SAS, version 9.1, under the Windows XP Professional operating system.

[6] = Plasma, brain and liver levels after bolus IV administration in nude mice; details: bolus IV 5 mpk; for concentration at 6 h / concentration at 24 h: nude, mouse, in vivo, iv, 5 mg/kg
[7] = triple transgenic (Oddo et al. 2003), mouse, brain, 5 mg/kg, read-out: Brain conc
[8] = triple transgenic (Oddo et al. 2003), mouse, plasma, 5 mg/kg, read-out: Plasma conc
[9] = mouse, brain, 10 mg/kg, C57BL/6 mice, oral gavage 10 mpk, read-out: Brain conc
[10] = mouse, brain, 35 mg/kg, C57BL/6 mice, oral gavage 35 mpk, read-out: Brain conc
[11] = mouse, plasma, 10 mg/kg, C57BL/6 mice, oral gavage 10 mpk, read-out: Plasma conc
[12] = mouse, plasma, 35 mg/kg, C57BL/6 mice, oral gavage 35 mpk, read-out: Plasma conc

C/C1=C/C[C@@H](/C(C)=C/c2csc(C)n2)OC(=O)C[C@H](O)C(C)(C)C(=O)[C@H](C)[C@@H](O)[C@@H](C)CCC1 [Epothilone D, epothilone D]
CA3 total cell count (Tg4510 mice [1]; 1 mpk IP weekly, vs vehicle): significant differences between the 1 mpk and non-transgenic mice compared to vehicle treated mice | CA1 neuronal count (Tg4510 mice [1]; 1 mpk IP weekly, vs vehicle, p<0.01): substantially more CA1 neurons than vehicle-treated animals | CA1 neuronal count (Tg4510 mice [1]; 10 mpk IP weekly): intermediate between the vehicle-treated mice and the mice treated with 1 mpk | Gallyas silver staining: neurofibrillary tangles (neurofibrillary tangles; 1 mpk IP weekly): much lower levels of neurofibrillary tangles than did vehicle-treated mice | Gallyas silver staining: neurofibrillary tangles (neurofibrillary tangles; 10 mpk IP weekly): trend toward improvement | retention in brain tissue after a single dose [2]: at least 168 h | Plasma conc ([2]; 96 hr): <LLQ (0.6 nM) | Plasma conc ([2]; 168 hr): <LLQ (0.6 nM) | concentration at 24 h ([2]; mouse, liver, 5 mg/kg, below LLQ, read-out: liver levels): < 49 nM | concentration at 0.05 h [2, 7]: 1130 nM | concentration at 0.17 h [2, 7]: 595 nM | concentration at 1 h [2, 7]: 422 nM | concentration at 3 h [2, 7]: 468 nM | concentration at 6 h [2, 7]: 141 nM | concentration at 16 h [2, 7]: 210 nM | concentration at 24 h [2, 7]: 82.7 nM | concentration at 96 h ([2]; triple transgenic (Oddo et al. 2003), mouse, brain, 5 mg/kg, 96 hr, read-out: Brain conc): 25.2 nM | concentration at 168 h ([2]; triple transgenic (Oddo et al. 2003), mouse, brain, 5 mg/kg, 168 hr, read-out: Brain conc): 16.3 nM | concentration at […] [2, 7]: 529 nM | concentration at 0.05 h [2, 8]: 25100 nM | concentration at 0.17 h [2, 8]: 2000 nM | concentration at 1 h [2, 8]: 325 nM | concentration at 3 h [2, 8]: 70 nM | concentration at 6 h [2, 8]: 43 nM | concentration at 16 h [2, 8]: 0.8 nM | concentration at 24 h [2, 8]: 0.9 nM | concentration at […] [2, 8]: 549 nM | Plasma conc ([3]; C57BL/6 mice, oral gavage 10 mpk, 48 hr): (0.1 nM) | Plasma conc ([3]; C57BL/6 mice, oral gavage 10 mpk, 96 hr): (0.1 nM) | Plasma conc ([3]; C57BL/6 mice, oral gavage 35 mpk, 24 hr): (0.5 nM) | concentration at 1 h [3, 9]: 10.6 nM | concentration at 3 h [3, 9]: 7 nM | concentration at 4 h [3, 9]: 9.9 nM | concentration at 8 h [3, 9]: 6.4 nM | concentration at 13 h [3, 9]: 6.3 nM | concentration at 24 h ([3]; mouse, brain, 10 mg/kg, C57BL/6 mice, oral gavage 10 mpk, 24 hr, read-out: Brain conc): 9.1 nM | concentration at 48 h ([3]; mouse, brain, 10 mg/kg, C57BL/6 mice, oral gavage 10 mpk, 48 hr, read-out: Brain conc): 5.4 nM | concentration at 96 h ([3]; mouse, brain, 10 mg/kg, C57BL/6 mice, oral gavage 10 mpk, 96 hr, read-out: Brain conc): 3 nM | concentration at 1 hr [3, 10]: 61.3 nM | concentration at 5 hr [3, 10]: 76.9 nM | concentration at 24 hr ([3]; mouse, brain, 35 mg/kg, C57BL/6 mice, oral gavage 35 mpk, 24 hr, read-out: Brain conc): 118 nM | concentration at 1 h [3, 11]: 15.1 nM | concentration at 3 h [3, 11]: 3.9 nM | concentration at 4 h [3, 11]: 2.5 nM | concentration at 8 h [3, 11]: 1.4 nM | concentration at 13 h [3, 11]: 0.1 nM | concentration at 24 h ([3]; mouse, plasma, 10 mg/kg, C57BL/6 mice, oral gavage 10 mpk, 24 hr, read-out: Plasma conc): 0.2 nM | concentration at 1 hr [3, 12]: 52.7 nM | concentration at 5 hr [3, 12]: 3.6 nM | time brain levels were maintained ([3]; oral dosing 10 and 35 mpk (also IV, Table 2)): more than 24 h | Half life (brain) ([4]; Mouse, IP, 10 mpk, 10 mg/kg): 37 h and 45 h and 46 h | half-life ([4]; intravenous, oral, intraperitoneal, mice, multiple routes of administration and dosages, read-out: brain half life, average (converted)): 46 h | half-life ([4]; ip, 1 mg/kg, Mouse, IP, 1 mpk, read-out: Half life (brain) (converted)): 44 h | half-life ([4]; ip, 10 mg/kg, Mouse, IP, 10 mpk, read-out: Half life (brain) (converted)): 41 h | half-life ([4]; iv, 5 mg/kg, Mouse, IV, 5 mpk, read-out: Half life (brain) (converted)): 61 h | half-life ([4]; po, 10 mg/kg, Mouse, Oral, 10 mpk, read-out: Half life (brain) (converted)): 46 h | MWM acquisition: locating the hidden platform (Tg4510 mice [5]; 1 mpk IP once weekly, p<0.01): able to locate the hidden platform in the MWM more quickly | MWM probe trial % pathlength in target quadrant (Tg4510 mice [5]; 1 mpk IP weekly for 2 months): statistically significant differences in both measures as compared with the vehicle group | MWM probe trial number of platform crossings (Tg4510 mice [5]; 1 mpk IP weekly for 2 months): statistically significant differences in both measures as compared with the vehicle group | MWM acquisition: locating the hidden platform (Tg4510 mice [5]; 10 mpk IP once weekly): trend toward improvement | MWM probe trial % pathlength in target quadrant (Tg4510 mice [5]; 10 mpk IP weekly for 2 months): significantly greater performance compared to the vehicle group | MWM probe trial number of platform crossings (Tg4510 mice [5]; 10 mpk IP weekly for 2 months): not when using the number of platform crossings measure | brain levels versus liver levels ([6]; 6 and 24 h after dosing): high brain levels that exceeded liver levels | concentration at 6 h ([6]; Brain conc): 2790 nM | concentration at 24 h ([6]; Brain conc): 2050 nM | concentration at 6 h ([6]; Plasma conc): 6 nM | concentration at 24 h ([6]; Plasma conc): 1 nM
